The data set in a line: method code SF-HPLC, from DOI: 10.1080/10826079308019563. To be noted: pH 11.0.
Take `NC1=NCC(CN2CCN(c3ccccc3Cl)CC2)O1` (stereo not given): the pH-dependent lipophilicity (logD) (as a rule, lipophilicity at a set pH, counting ionised and neutral species) amounted to 1.87.
`NC1=NCC(CN2CCN(c3ccccn3)CC2)O1` (stereo not given) showed a log distribution coefficient (logD) of 0.48.
In turn, `NC1=NCC(CN2CCN(c3ccc(Cl)c(Cl)c3)CC2)O1` (stereo not given) displayed a logD of 2.4.
Next, `NC1=NCC(CN2CCN(c3ccc(C(F)(F)F)cc3)CC2)O1` (stereo not given): 1.23; `CCOc1ccccc1N1CCN(CC2CN=C(N)O2)CC1` (stereo not given): 1.21; `COc1ccc(N2CCN(CC3CN=C(N)O3)CC2)cc1` (stereo not given): 0.68.
The figure for `NC1=NCC(CN2CCN(c3ccc(F)cc3)CC2)O1` (stereo not given) is 1; for `Cc1cccc(N2CCN(CC3CN=C(N)O3)CC2)c1C` (stereo not given) it is 2.19; for `COc1cccc(N2CCN(CC3CN=C(N)O3)CC2)c1` (stereo not given) it is 0.87.
For `NC1=NCC(CN2CCN(c3ncccn3)CC2)O1` (stereo not given), the logD is 0.21.
Consider `NC1=NCC(CN2CCN(c3ccccc3)CC2)O1` (stereo not given), for which the log distribution coefficient (logD) came out at 0.85.
The figure for `NC1=NCC(CN2CCN(c3ccc(Cl)cc3)CC2)O1` (stereo not given) is 1.71; for `NC1=NCC(CN2CCN(c3cccc(Cl)c3)CC2)O1` (stereo not given) it is 1.83; for `COc1ccccc1N1CCN(CC2CN=C(N)O2)CC1` (stereo not given) it is 0.76.
The figure for `NC1=NCC(CN2CCN(c3cccc(C(F)(F)F)c3)CC2)O1` (stereo not given) is 2.21.

For the origin of these results see the SangsterLogP compilation.
